Measured values from PubChem BioAssay (NCI).
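Method: 48-hour compound exposure of cells in 96-well plates, five concentrations, linear interpolation of endpoints. TGI denotes the concentration required for complete inhibition of growth.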

system: NCI-H23 lung; assay: DTP human tumour cell line panel, 48 h

Row | Structure (SMILES) | TGI [µM]
1 | CS(=O)(=O)c1ccc(-c2cc(-c3ccc(S(C)(=O)=O)cc3)[n+](-c3cc(-c4ccccc4)c([O-])c(-c4ccccc4)c3)c(-c3ccc(S(C)(=O)=O)cc3)c2)cc1 | > 100
2 | CC(C)=CC1CC(=[N+]=[N-])C(=O)C1(C)C (stereo not given) | > 100
3 | O=C(CSc1c2ccccc2nc2ccccc12)Nc1ccccc1-c1ccccc1NC(=O)CSc1c2ccccc2nc2ccccc12 | 61.6
4 | O=S(=O)(c1ccccc1)N1N=C2c3ccccc3CCC[C@H]2C1c1ccccc1 (stereo not given in full) | > 100

system: HCC-2998 colon; assay: DTP human tumour cell line panel, 48 h

Row | Structure (SMILES) | TGI [µM]
5 | COC(=O)[C@@]1(C)/C(=N/NS(=O)(=O)c2ccc(C)cc2)CCC[C@@H]1C | > 100
6 | CN(CCN(C)C(=O)CCn1cc(F)c(=O)[nH]c1=O)C(=O)CCn1cc(F)c(=O)[nH]c1=O | > 100
7 | CCOC1c2cc(C(C)C)c(O)c(O)c2[C@@]23CCCC(C)(C)C2C1OC3=O (stereo not given in full) | > 100
8 | C=CN1C(=O)[C@H](Oc2ccccc2)[C@@H]1c1ccccc1 | > 100
9 | CS(=O)(=O)c1ccc(-c2cc(-c3ccc(S(C)(=O)=O)cc3)[n+](-c3cc(-c4ccccc4)c([O-])c(-c4ccccc4)c3)c(-c3ccc(S(C)(=O)=O)cc3)c2)cc1 | > 100
10 | CC(C)=CC1CC(=[N+]=[N-])C(=O)C1(C)C (stereo not given) | > 100
11 | O=C(CSc1c2ccccc2nc2ccccc12)Nc1ccccc1-c1ccccc1NC(=O)CSc1c2ccccc2nc2ccccc12 | 34.5
12 | O=S(=O)(c1ccccc1)N1N=C2c3ccccc3CCC[C@H]2C1c1ccccc1 (stereo not given in full) | > 100

system: M14 melanoma; assay: DTP human tumour cell line panel, 48 h

Row | Structure (SMILES) | TGI [µM]
13 | COC(=O)[C@@]1(C)/C(=N/NS(=O)(=O)c2ccc(C)cc2)CCC[C@@H]1C | > 100
14 | CN(CCN(C)C(=O)CCn1cc(F)c(=O)[nH]c1=O)C(=O)CCn1cc(F)c(=O)[nH]c1=O | > 100
15 | CCOC1c2cc(C(C)C)c(O)c(O)c2[C@@]23CCCC(C)(C)C2C1OC3=O (stereo not given in full) | > 100
16 | C=CN1C(=O)[C@H](Oc2ccccc2)[C@@H]1c1ccccc1 | > 100
17 | CS(=O)(=O)c1ccc(-c2cc(-c3ccc(S(C)(=O)=O)cc3)[n+](-c3cc(-c4ccccc4)c([O-])c(-c4ccccc4)c3)c(-c3ccc(S(C)(=O)=O)cc3)c2)cc1 | > 100
18 | CC(C)=CC1CC(=[N+]=[N-])C(=O)C1(C)C (stereo not given) | > 100
19 | O=C(CSc1c2ccccc2nc2ccccc12)Nc1ccccc1-c1ccccc1NC(=O)CSc1c2ccccc2nc2ccccc12 | > 73.9
20 | O=S(=O)(c1ccccc1)N1N=C2c3ccccc3CCC[C@H]2C1c1ccccc1 (stereo not given in full) | > 100

system: UACC-62 melanoma; assay: DTP human tumour cell line panel, 48 h

Row | Structure (SMILES) | TGI [µM]
21 | COC(=O)[C@@]1(C)/C(=N/NS(=O)(=O)c2ccc(C)cc2)CCC[C@@H]1C | > 100
22 | CN(CCN(C)C(=O)CCn1cc(F)c(=O)[nH]c1=O)C(=O)CCn1cc(F)c(=O)[nH]c1=O | > 100
23 | CCOC1c2cc(C(C)C)c(O)c(O)c2[C@@]23CCCC(C)(C)C2C1OC3=O (stereo not given in full) | > 100
24 | CS(=O)(=O)c1ccc(-c2cc(-c3ccc(S(C)(=O)=O)cc3)[n+](-c3cc(-c4ccccc4)c([O-])c(-c4ccccc4)c3)c(-c3ccc(S(C)(=O)=O)cc3)c2)cc1 | > 100
25 | CC(C)=CC1CC(=[N+]=[N-])C(=O)C1(C)C (stereo not given) | > 100
26 | O=C(CSc1c2ccccc2nc2ccccc12)Nc1ccccc1-c1ccccc1NC(=O)CSc1c2ccccc2nc2ccccc12 | 52.7
27 | O=S(=O)(c1ccccc1)N1N=C2c3ccccc3CCC[C@H]2C1c1ccccc1 (stereo not given in full) | > 100

system: OVCAR-5 ovarian; assay: DTP human tumour cell line panel, 48 h

Row | Structure (SMILES) | TGI [µM]
28 | COC(=O)[C@@]1(C)/C(=N/NS(=O)(=O)c2ccc(C)cc2)CCC[C@@H]1C | > 100
29 | CN(CCN(C)C(=O)CCn1cc(F)c(=O)[nH]c1=O)C(=O)CCn1cc(F)c(=O)[nH]c1=O | > 100
30 | CCOC1c2cc(C(C)C)c(O)c(O)c2[C@@]23CCCC(C)(C)C2C1OC3=O (stereo not given in full) | > 100
31 | C=CN1C(=O)[C@H](Oc2ccccc2)[C@@H]1c1ccccc1 | > 100
32 | CS(=O)(=O)c1ccc(-c2cc(-c3ccc(S(C)(=O)=O)cc3)[n+](-c3cc(-c4ccccc4)c([O-])c(-c4ccccc4)c3)c(-c3ccc(S(C)(=O)=O)cc3)c2)cc1 | > 100
33 | CC(C)=CC1CC(=[N+]=[N-])C(=O)C1(C)C (stereo not given) | > 100
34 | O=C(CSc1c2ccccc2nc2ccccc12)Nc1ccccc1-c1ccccc1NC(=O)CSc1c2ccccc2nc2ccccc12 | > 100
35 | O=S(=O)(c1ccccc1)N1N=C2c3ccccc3CCC[C@H]2C1c1ccccc1 (stereo not given in full) | > 100
